Data: US12233073B2, “Skin care formulations and skin cancer treatment” (Regents of the University of Minnesota, priority 2017, dated 2025)
Like-named read-outs stand apart in the source and are kept apart here.

Legend:
[1] = tested on: SSL-induced skin tumors in SKH-1 hairless mice; conditions: for % Mortality/Number of dead mice / Total/Average volume of tumors / Total/Avg. no. of tumors: no SSL exposure
Experimental: The effectiveness of different candidate compounds in preventing sUV-induced cancer was evaluated. SKH-1 hairless mice (Charles River, Burlington, Massachusetts) were treated with formulations including one or more candidate compounds and exposed to SSL (solar simulated light). Female mice aged 5-6 weeks at the beginning of the study were used. The mice were exposed to SSL three times a week for 15 weeks from the beginning of the study. At week 1, the SSL dose included 37 kJ/m^2 UVA and 1.8 kJ/m^2 UVB three times per week. […] At week 6, the dose included 60 kJ/m^2 UVA and 2.9 kJ/m^2 UVB and this dose was maintained until week 15 at which time SSL exposure was stopped. Each mouse received a topical application (on the dorsal skin surface posterior to the base of the neck and anterior to the base of the tail) of one or more candidate compounds in a base cream one hour before SSL exposure. 15 weeks onwards, the mice were no longer exposed to SSL but the topical application of cream with sunscreen compounds was continued until 30 weeks. Control mice received topical application of cream with sunscreen compounds but no SSL.
Tumors were counted by sight. The dimensions of each tumor were measured using a digital caliper. Tumor volume (mm^3) was determined as (length×width^2)×0.52, where the length and width were measured in mm. […] Average or total tumor volumes were compared between vehicle (cream)-treated mice exposed to SSL and compound in cream-treated mice exposed to SSL.

[2] = tested on: skin of SKH-1 hairless mice; experiment: H&E staining of skin of mice treated with anti-sUV agents; type: in vivo, mouse; conditions: solar UV-exposed groups G13-G24
Source text: FIG. 40 is a photograph comparing H&E (hematoxylin and eosin) stained tissue sample of mice exposed to solar ultraviolet and treated with anti-sUV agents and mice unexposed to solar ultraviolet. H&E staining can show skin damage (see TABLE 5 for group identification). […] None of the compounds in the absence of solar UV caused any damage and none had any adverse effect on skin thickness. G11 and G12 are the positive controls, being groups treated with solar UV without or with vehicle (cream).

[3] = tested on: nuclear factor kappa B (NF-κB) pathway; experiment: Cell-based assay of the nuclear factor kappa B (NF-κB) pathway; conditions: for Rating (inhibition of NF-κB): one rating per compound; for inhibition at 10 µg/mL / inhibition at 50 µg/mL / inhibition at 100 µg/mL: read-out: % inhibition of NF-κB
Experimental: The effect of adding anti-aging and/or anti-wrinkling compounds to the skin care formulation of EXAMPLE 18 on nuclear factor kappa B (NF-κB) mediated-inflammation was evaluated.
A cell-based assay was performed to determine the effective of each of these compounds. The assay involved the effect of each compound on the nuclear factor kappa B (NF-κB) pathway. The inhibition of NF-κB is indicative of a protective effect against aging and wrinkling.

elastin = experiment: Induction of elastin; type: cell-based; conditions: for Rating (Elastin): first rating in cell
Experimental: (§1) Higher elastin and collagen activity is indicative of anti-wrinkling or anti-aging effects. Activation of the antioxidant response element (ARE) pathway was also evaluated. The NF-E2-related factor (Nrf2) is a critical transcription factor in oxidative stress signaling. Nrf2 binds to the ARE and serves as a master regulator in cellular defense pathways. The ARE pathway mediates the transcriptional induction of a battery of genes that help to protect the cells against oxidative damage. Activation of the ARE promoter leads to more endogenous antioxidants and cell detoxification.

collagen 1A = experiment: Induction of collagen 1A; type: cell-based; conditions: for Rating (Collagen 1A): second rating in cell
Experimental: as §1

UV-induced ROS = experiment: Inhibition of the production of UV-induced reactive oxygen species (ROS); type: cell-based; conditions: for inhibition at 10 µg/mL: read-out: % inhibition of UV-induced ROS
Experimental: The effect of the compounds of EXAMPLE 20 on inhibition of the production of reactive oxygen species (ROS), which can damage skin cells, was evaluated.

[4] = tested on: antioxidant response element (ARE) pathway; experiment: Activation of the antioxidant response element (ARE) pathway; type: cell-based; conditions: for Rating (ARE): third rating in cell
Experimental: as §1

[5] = SSL-exposed, compound in cream, percent per TABLE 5
[6] = SSL-exposed, compound in cream, percent per TABLE 5, 15 mice
[7] = female, SKH-1 hairless, mouse, in vivo, 30 weeks
[8] = compound in cream, percent per TABLE 5

| Compound | % Effective Protection (% reduction in tumor volume vs SSL with cream only) [1, 5] [%] | % Mice with tumor [1, 6] [%] | % Mortality [1, 6] | Average volume of tumors [1, 6] [mm^3] | Avg. no. of tumors [1, 6] | Number of dead mice [1, 6] | Total no. of tumors [1, 6] | Total volume of tumors [1, 6] [mm^3] | % Mice with tumor [1, 7] [%] | % Mortality/Number of dead mice [1, 8] | Total/Average volume of tumors [1, 8] | Total/Avg. no. of tumors [1, 8] | H&E staining: epidermal thickening and skin damage [2] | Rating (inhibition of NF-κB) [3] | inhibition at 10 µg/mL [3] [%] | inhibition at 50 µg/mL [3] [%] | inhibition at 100 µg/mL [3] [%] | fold induction at 10 µg/mL (elastin; final dose 10 μg/ml) | fold induction at 50 µg/mL (elastin; final dose 50 μg/ml) | Rating (Collagen 1A) (collagen 1A) | other results |
| --- | --- | --- | --- | --- | --- | --- | --- | --- | --- | --- | --- | --- | --- | --- | --- | --- | --- | --- | --- | --- | --- |
| CCCCC(CC)COC(=O)C=Cc1ccc(OC)cc1 (stereo not shown) [Octinoxate] | 93.9 | 80 | 13.3% | 10.4 | 1.4 | 2 | 21 | 156.02 | 0 | 0 | 0 | 0 | epidermal thickening but less damage |  |  |  |  |  |  |  |  |
| COc1ccc(C(=O)c2ccccc2)c(O)c1 [Oxybenzone] | 91.2 | 86.7 | 6.7% | 14.3 | 2.3 | 1 | 35 | 213.7 | 0 | 0 | 0 | 0 | epidermal thickening but less damage |  |  |  |  |  |  |  |  |
| Titanium dioxide | 89.2 | 100 | 13.3% | 18.4 | 2.6 | 2 | 39 | 275.6 |  | 0 | 0 | 0 | epidermal thickening and skin damage |  |  |  |  |  |  |  | % Mice with tumor ([1]; mouse, in vivo): 0% |
| CCCCC(CC)COC(=O)C(C#N)=C(c1ccccc1)c1ccccc1 (stereo not shown) [Octocrylene] | 90.3 | 66.7 | 0/0% | 16.5 | 1.7 | 0/0 | 25 | 246.7 | 0 | 0 | 0 | 0 | epidermal thickening and skin damage |  |  |  |  |  |  |  |  |
| O=C(/C=C/c1ccc(O)c(O)c1)OCCc1ccccc1 [HI-6, caffeic acid phenylethyl ester] |  |  |  |  |  |  |  |  |  |  |  |  |  | *** (high activity (56-75%)) | 64 | > 90 | > 90 | < 1.3 | < 1.3 | none, none, N/A | fold induction at 100 µg/mL (elastin; final dose 100 μg/ml): 2; Rating (Elastin) (elastin): none, none, N/A; fold induction at 10 µg/mL (collagen 1A; final dose 10 μg/ml): < 1.3; fold induction at 50 µg/mL (collagen 1A; final dose 50 μg/ml): < 1.3; fold induction at 100 µg/mL (collagen 1A; final dose 100 μg/ml): < 1.3; inhibition at 10 µg/mL (UV-induced ROS): > 70%; fold induction at 10 µg/mL ([4]; final dose 10 μg/ml): < 1.3; fold induction at 50 µg/mL ([4]; final dose 50 μg/ml): < 1.3; fold induction at 100 µg/mL ([4]; final dose 100 μg/ml): < 1.3 |
| C=CCc1ccc(O)c(-c2cc(CC=C)ccc2O)c1 [HI-3, magnolol] |  |  |  |  |  |  |  |  |  |  |  |  |  | **** (very high activity (>76%)) | > 90 | > 90 | > 90 | < 1.3 | 4 | none | Cytotoxicity remark in Rating column ([3]; NF-κB cell-based assay): slightly cytotoxic; fold induction at 100 µg/mL (elastin; final dose 100 μg/ml): 2.8; Rating (Elastin) (elastin): none; fold induction at 10 µg/mL (collagen 1A; final dose 10 μg/ml): < 1.3; fold induction at 50 µg/mL (collagen 1A; final dose 50 μg/ml): < 1.3; fold induction at 100 µg/mL (collagen 1A; final dose 100 μg/ml): < 1.3; inhibition at 10 µg/mL (UV-induced ROS): ~10%; fold induction at 10 µg/mL ([4]; final dose 10 μg/ml): < 1.3; fold induction at 50 µg/mL ([4]; final dose 50 μg/ml): < 1.3; fold induction at 100 µg/mL ([4]; final dose 100 μg/ml): < 1.3; Rating (ARE) [4]: none |
| COc1cc(-c2oc3cc(O)cc(O)c3c(=O)c2O)ccc1O [HI-10, isorhamnetin] |  |  |  |  |  |  |  |  |  |  |  |  |  |  | 45 | 52 | 43 | 1.7 | 1.8 | ** (medium activity (31-55%)) | fold induction at 100 µg/mL (elastin; final dose 100 μg/ml): 4; fold induction at 10 µg/mL (collagen 1A; final dose 10 μg/ml): 1.4; fold induction at 50 µg/mL (collagen 1A; final dose 50 μg/ml): < 1.3; fold induction at 100 µg/mL (collagen 1A; final dose 100 μg/ml): < 1.3; inhibition at 10 µg/mL (UV-induced ROS; final dose 10 μg/ml): ~50%; fold induction at 10 µg/mL ([4]; final dose 10 μg/ml): 2; fold induction at 50 µg/mL ([4]; final dose 50 μg/ml): < 1.3; fold induction at 100 µg/mL ([4]; final dose 100 μg/ml): < 1.3; Rating (ARE) [4]: **** (very high activity (>76%)) |
| Oc1cc(O)c2cc(O)c(-c3cc(O)c(O)c(O)c3)[o+]c2c1 [HI-2, delphiniden] |  |  |  |  |  |  |  |  |  |  |  |  |  | none |  |  |  |  |  | none | % inhibition of NF-κB ([3]; final dose 10 μg/ml): none; % inhibition of NF-κB ([3]; final dose 50 μg/ml): none; % inhibition of NF-κB ([3]; final dose 100 μg/ml): none; Elastin induction (elastin; final dose 10 μg/ml): 1.5x; Elastin induction (elastin; final dose 50 μg/ml): — (The dash (—) indicates <1.3x or no induction); Elastin induction (elastin; final dose 100 μg/ml): — (The dash (—) indicates <1.3x or no induction); Rating (Elastin) (elastin): none; Collagen 1A induction (collagen 1A; final dose 10 μg/ml): — (The dash (—) indicates <1.3x or no induction); Collagen 1A induction (collagen 1A; final dose 50 μg/ml): — (The dash (—) indicates <1.3x or no induction); Collagen 1A induction (collagen 1A; final dose 100 μg/ml): — (The dash (—) indicates <1.3x or no induction); % inhibition of UV-induced ROS (UV-induced ROS; final dose 10 μg/ml): >70%; ARE activation ([4]; final dose 10 μg/ml): — (The dash (—) indicates <1.3x or no induction); ARE activation ([4]; final dose 50 μg/ml): — (The dash (—) indicates <1.3x or no induction); ARE activation ([4]; final dose 100 μg/ml): 1.7x; Rating (ARE) [4]: none |
